Biological target: T1, Human androgen receptor (HAR) (Homo sapiens, UniProt P10275)
T1 construct: made in house; host or cells: SF9 insect cells (baculovirus), lysate supernatant
T1 sequence (P10275 1-920): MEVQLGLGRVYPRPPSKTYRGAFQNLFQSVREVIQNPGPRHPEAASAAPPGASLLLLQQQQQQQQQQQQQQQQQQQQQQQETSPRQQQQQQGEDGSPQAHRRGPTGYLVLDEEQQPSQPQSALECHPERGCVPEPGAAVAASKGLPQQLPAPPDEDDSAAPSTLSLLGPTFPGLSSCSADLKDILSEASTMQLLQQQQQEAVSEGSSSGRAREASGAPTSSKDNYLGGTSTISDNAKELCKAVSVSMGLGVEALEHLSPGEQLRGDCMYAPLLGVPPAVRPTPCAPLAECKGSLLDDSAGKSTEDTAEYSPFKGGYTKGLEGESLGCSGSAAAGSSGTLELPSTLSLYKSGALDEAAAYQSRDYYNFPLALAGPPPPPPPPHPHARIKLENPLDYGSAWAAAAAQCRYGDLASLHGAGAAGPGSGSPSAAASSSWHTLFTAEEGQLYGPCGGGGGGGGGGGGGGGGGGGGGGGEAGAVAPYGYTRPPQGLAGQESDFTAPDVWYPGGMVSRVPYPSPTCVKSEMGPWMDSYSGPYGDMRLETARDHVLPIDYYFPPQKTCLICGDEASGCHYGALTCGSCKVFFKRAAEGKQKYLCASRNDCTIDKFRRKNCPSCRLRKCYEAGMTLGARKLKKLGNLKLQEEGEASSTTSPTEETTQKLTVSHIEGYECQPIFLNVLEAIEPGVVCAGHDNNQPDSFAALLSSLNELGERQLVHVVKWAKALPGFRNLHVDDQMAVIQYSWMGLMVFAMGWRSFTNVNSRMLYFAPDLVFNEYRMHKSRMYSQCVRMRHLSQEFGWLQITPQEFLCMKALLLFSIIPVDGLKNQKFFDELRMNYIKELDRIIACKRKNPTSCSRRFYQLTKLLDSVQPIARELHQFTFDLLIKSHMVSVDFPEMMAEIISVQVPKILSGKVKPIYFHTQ
Assay: Relative bond affinity (RBA), recombinant human androgen receptor, charcoal dextran technique
Assay type: binding
Conditions: 24 h at 0° C., Testosterone = 100
Method: The human recombinant receptor (HGR, HPR, HAR, HMR, HER) was used.
Human androgen receptor (HAR)
A supernatant of SF9 cells containing the recombinant human androgen receptor was obtained by the process described above for the progestogen receptor using the cDNA fragment containing the region coding for the human androgen receptor. The cells obtained were lysed in the lysis buffer (3). The supernatant was incubated at 0° C. for an incubation time of 24 hours with a constant concentration (T) of tritiated testosterone in the presence of increasing concentrations of either unlabelled testosterone (0 to 1000×10^-9 M), or the unlabelled product to be tested (1 to 25000×10^-9 M). The concentration of bound tritiated testosterone (B) was then measured in each incubate using the charcoal dextran adsorption technique.
Calculation of the relative bond affinity (RBA).
The following two curves were drawn: the percentage of bound tritiated hormone B/BO as a function of the logarithm of the concentration of unlabelled reference hormone or as a function of the logarithm of the concentration of unlabelled test product. The straight line of the following equation was determined: […]
The relative bond affinity (RBA) of the test product was determined by the equation: […]

What does the source list for C[C@H](O)C(=O)[C@@]1(C)CC[C@H]2[C@@H]3C[C@@H](O)C4=CC(=O)CCC4=C3CC[C@@]21C [Product B, [6β, 17β-(S)]-6-hydroxy-17-(2-hydroxy-1-oxopropyl)-17-methyl-Δ^4,9-estradiene-3-one]?
RBA, Human androgen receptor: 0; RBA, Human androgen receptor (listed as product B): no or negligible RBA's

Source: patent publication US5834452A, “1- or 6-hydroxylated steroids” (Roussel Uclaf, priority 1996, dated 1998)
